According to the supplement of paper PMC13380429:

Assays:
[1] = system: A549-ACE2 infected with SARS-CoV-2; assay: morphology score (similarity to uninfected cells); higher = more like uninfected cells; settings: 24 h
[2] = system: Vero E6; assay: drug sensitivity score (DSS) for viability; higher = more toxic; extreme values may be limits of the assay; settings: 72 h
[3] = system: Caco-2; assay: as above; settings: 72 h
[4] = system: HepG2; assay: as above; settings: 72 h
[5] = system: U2OS; assay: as above; settings: 72 h
[6] = system: Vero E6; assay: cell viability relative to DMSO; higher = less toxic; settings: 72 h
[7] = system: Caco-2; assay: as above; settings: 72 h
[8] = system: HepG2; assay: as above; settings: 72 h
[9] = system: U2OS; assay: as above; settings: 72 h
[10] = system: A549-ACE2 infected with SARS-CoV-2; assay: cell count relative to DMSO; higher = less toxic; settings: 24 h
[11] = system: Vero E6; assay: relative viability EC50 (midpoint between 100% and the lowest measured viability); higher = less toxic; settings: 72 h
[12] = system: U2OS; assay: as above; settings: 72 h
[13] = system: A549-ACE2 infected with SARS-CoV-2; assay: SARS-CoV-2 infection rate relative to DMSO; higher = more infection; settings: 24 h
[14] = system: A549-ACE2; assay: drug-induced phospholipidosis relative to tamoxifen; higher = more phospholipidosis
[15] = system: A549-ACE2; assay: phospholipidosis EC50; higher = less potent phospholipidosis inducer
[16] = system: Calu-3; assay: drug sensitivity score (DSS) for viability; higher = more toxic; extreme values may be limits of the assay; settings: 72 h
[17] = system: Calu-3; assay: cell viability relative to DMSO; higher = less toxic; settings: 72 h
[18] = system: Calu-3; assay: relative viability EC50 (midpoint between 100% and the lowest measured viability); higher = less toxic; settings: 72 h
[19] = system: Caco-2; assay: as above; settings: 72 h
[20] = system: HepG2; assay: as above; settings: 72 h

Cn1c(NC[C@@H](N)Cc2ccccc2)nc(-c2ccncc2)c(-c2ccc3ccccc3c2)c1=O [AMG-548]
Settings | SARS-CoV-2 infection rate [%] | cell count [%] | cell viability [%] | morphology score | phospholipidosis EC50 [µM]
[1], 0.3 µM | – | – | – | -0.14 | –
[1], 3 µM | – | – | – | 0.22 | –
[1], 10 µM | – | – | – | 0.82 | –
[1], 30 µM | – | – | – | 0.53 | –
[6], 1 nM | – | – | 106 | – | –
[6], 10 nM | – | – | 104 | – | –
[6], 100 nM | – | – | 99.2 | – | –
[6], 1000 nM | – | – | 89 | – | –
[6], 10000 nM | – | – | 97.2 | – | –
[7], 1 nM | – | – | 96.8 | – | –
[7], 10 nM | – | – | 87.9 | – | –
[7], 100 nM | – | – | 102 | – | –
[7], 1000 nM | – | – | 89.5 | – | –
[7], 10000 nM | – | – | 69.9 | – | –
[8], 1 nM | – | – | 106 | – | –
[8], 10 nM | – | – | 108 | – | –
[8], 100 nM | – | – | 101 | – | –
[8], 1000 nM | – | – | 104 | – | –
[8], 10000 nM | – | – | 72.4 | – | –
[9], 1 nM | – | – | 101 | – | –
[9], 10 nM | – | – | 94.2 | – | –
[9], 100 nM | – | – | 93.1 | – | –
[9], 1000 nM | – | – | 85.3 | – | –
[9], 10000 nM | – | – | 76.3 | – | –
[10], 0.3 µM | – | 93 | – | – | –
[10], 3 µM | – | 110 | – | – | –
[10], 10 µM | – | 123 | – | – | –
[10], 30 µM | – | 106 | – | – | –
[13], 0.3 µM | 99 | – | – | – | –
[13], 3 µM | 71 | – | – | – | –
[13], 10 µM | 27 | – | – | – | –
[13], 30 µM | 11 | – | – | – | –
[15], 24 h | – | – | – | – | 8.48
[15], 48 h | – | – | – | – | 9.02
[15], 72 h | – | – | – | – | 9.93

Settings | drug sensitivity score | relative viability EC50 [µM]
[2] | 0.3 | –
[3] | 2.8 | –
[4] | 0.9 | –
[5] | 2.3 | –
[11] | – | > 10
[12] | – | > 10

drug-induced phospholipidosis [%], [14]
Settings | 0.3 µM | 0.833333 µM | 3.33333 µM | 6.66667 µM | 10 µM | 30 µM
24 h | -3.67 | -2.85 | 6.77 | 44.3 | 80.5 | 129
48 h | -2.54 | -2.01 | 5.31 | 39.9 | 73.3 | 125
72 h | -1.85 | -0.623 | 7.44 | 37.6 | 80.8 | 151

[Cl][Ru-]([Cl])([Cl])[Cl].[Na+].c1ccc2[nH]ncc2c1.c1ccc2[nH]ncc2c1 [NKP-1339]
Settings | SARS-CoV-2 infection rate, [13] [%] | cell count, [10] [%] | cell viability, [6] [%] | cell viability, [7] [%] | cell viability, [9] [%] | cell viability, [17] [%] | morphology score, [1]
1 nM | – | – | 95.7 | 98.5 | 94.2 | 96.2 | –
10 nM | – | – | 99.2 | 96.6 | 95.9 | 91.9 | –
100 nM | – | – | 98.9 | 94.3 | 100 | 93.2 | –
0.3 µM | 95 | 98 | – | – | – | – | 0.32
1000 nM | – | – | 104 | 89.9 | 98.4 | 111 | –
3 µM | 99 | 103 | – | – | – | – | 0.06
10 µM | 97 | 100 | – | – | – | – | 0.14
10000 nM | – | – | 103 | 85.2 | 99.5 | 96.1 | –
30 µM | 91 | 105 | – | – | – | – | 0.16

Settings | drug sensitivity score | relative viability EC50 [µM]
[2] | 0 | –
[3] | 0.5 | –
[5] | 0 | –
[11] | – | > 10
[12] | – | > 10
[16] | 0 | –
[18] | – | > 10
[19] | – | > 10

drug-induced phospholipidosis [%], [14]
Settings | 0.3 µM | 0.833333 µM | 3.33333 µM | 6.66667 µM | 10 µM | 30 µM
24 h | -0.57 | 0.18 | -2.08 | -1.49 | -1.44 | 2.85
48 h | 0.31 | 0.08 | -0.84 | -0.18 | -0.5 | 1.39
72 h | 0.516 | -1.21 | -0.615 | -0.927 | 0.0701 | 3.63

Cc1nnc2n1-c1sc(CCC(=O)N3CCOCC3)cc1C(c1ccccc1Cl)=NC2 [apafant]
Settings | SARS-CoV-2 infection rate, [13] [%] | cell count, [10] [%] | cell viability, [6] [%] | cell viability, [7] [%] | cell viability, [8] [%] | cell viability, [17] [%] | morphology score, [1]
1 nM | – | – | 111 | 108 | 105 | 94.3 | –
10 nM | – | – | 105 | 107 | 93.7 | 94.7 | –
100 nM | – | – | 104 | 101 | 108 | 95.3 | –
0.3 µM | 101 | 101 | – | – | – | – | -0.03
1000 nM | – | – | 105 | 104 | 92.3 | 105 | –
3 µM | 83 | 102 | – | – | – | – | 0.43
10 µM | 102 | 100 | – | – | – | – | -0.18
10000 nM | – | – | 99.7 | 94 | 102 | 87.1 | –
30 µM | 93 | 103 | – | – | – | – | 0.24

Settings | drug sensitivity score | relative viability EC50 [µM]
[2] | 0 | –
[3] | 0 | –
[4] | 0 | –
[11] | – | > 10
[16] | 0 | –
[18] | – | > 10
[19] | – | > 10
[20] | – | > 10

drug-induced phospholipidosis [%], [14]
Settings | 0.3 µM | 0.833333 µM | 3.33333 µM | 6.66667 µM | 10 µM | 30 µM
24 h | -0.44 | -1.14 | -1.04 | -0.5 | -1.44 | -0.48
48 h | 0.52 | -1.18 | 0.04 | 0.92 | -0.18 | 0.6
72 h | 2.35 | -0.663 | 0.399 | -0.364 | 0.448 | 3.95

C[C@@H]1C[C@@H]([C@H](O)CC2CC(=O)NC(=O)C2)C(=O)[C@@H](C)C1 [cycloheximide]
[1]
Settings | morphology score
0.3 µM | 0.91
3 µM | 0.69
10 µM | 0.52
30 µM | 0.48

Settings | drug sensitivity score
[2] | 13.8
[4] | 14.3
[5] | 13.8
[16] | 7.3

CCCCCCCCNC(=O)/C(C#N)=C/c1cn(CCCN(C)C)c2ccccc12 [dynole-34-2]
Settings | SARS-CoV-2 infection rate [%] | cell count [%] | cell viability [%] | morphology score | phospholipidosis EC50 [µM]
[1], 0.3 µM | – | – | – | -0.05 | –
[6], 1 nM | – | – | 104 | – | –
[6], 10 nM | – | – | 102 | – | –
[6], 100 nM | – | – | 102 | – | –
[6], 1000 nM | – | – | 98.6 | – | –
[6], 10000 nM | – | – | 91.2 | – | –
[7], 1 nM | – | – | 97.3 | – | –
[7], 10 nM | – | – | 100 | – | –
[7], 100 nM | – | – | 103 | – | –
[7], 1000 nM | – | – | 95.5 | – | –
[7], 10000 nM | – | – | 63.9 | – | –
[8], 1 nM | – | – | 96.5 | – | –
[8], 10 nM | – | – | 93.4 | – | –
[8], 100 nM | – | – | 97.9 | – | –
[8], 1000 nM | – | – | 95.8 | – | –
[8], 10000 nM | – | – | 62 | – | –
[9], 1 nM | – | – | 104 | – | –
[9], 10 nM | – | – | 104 | – | –
[9], 100 nM | – | – | 99 | – | –
[9], 1000 nM | – | – | 102 | – | –
[9], 10000 nM | – | – | 5.2 | – | –
[10], 0.3 µM | – | 97 | – | – | –
[13], 0.3 µM | 105 | – | – | – | –
[15], 24 h | – | – | – | – | 0.825
[15], 48 h | – | – | – | – | 3.88
[15], 72 h | – | – | – | – | 6.62
[17], 1 nM | – | – | 98.3 | – | –
[17], 10 nM | – | – | 96.7 | – | –
[17], 100 nM | – | – | 105 | – | –
[17], 1000 nM | – | – | 93.1 | – | –
[17], 10000 nM | – | – | -0.1 | – | –

Settings | drug sensitivity score | relative viability EC50 [µM]
[2] | 0 | –
[3] | 2.5 | –
[4] | 2.6 | –
[5] | 5.1 | –
[11] | – | > 10
[12] | – | 3.29
[16] | 6.6 | –
[18] | – | 2.61

drug-induced phospholipidosis [%], [14]
Settings | 0.3 µM | 0.833333 µM | 3.33333 µM | 6.66667 µM | 10 µM
24 h | 1.06 | 56.4 | 87.1 | 96.8 | 112
48 h | 1.92 | 50.3 | 46.7 | 92 | 119
72 h | 2.02 | 41.5 | 27.6 | 81.2 | 120
